US6251944A, “Para-substituted phenylene derivatives” (G. D. Searle & Company, priority 1999, dated 2001)
Structures can show the parent of a compound that is named as a salt. Values belong to the compound of their own block, whether it stands above or below them.

Experiments:
[1] = biological target: T1, Human fibrinogen receptor (αIIbβ3) (Homo sapiens, UniProt P05106+P08514); experiment: Purified IIb/IIIa receptor assay (solid phase receptor assay); settings: inhibition of 50% of maximum binding of biotinylated vitronectin; highest concentration tested 1.0×10^-4 M
T1 construct: purified from outdated platelets; from tissue; host or cells: outdated platelets (human)
T1 sequence (P08514 32-887 limits assumed): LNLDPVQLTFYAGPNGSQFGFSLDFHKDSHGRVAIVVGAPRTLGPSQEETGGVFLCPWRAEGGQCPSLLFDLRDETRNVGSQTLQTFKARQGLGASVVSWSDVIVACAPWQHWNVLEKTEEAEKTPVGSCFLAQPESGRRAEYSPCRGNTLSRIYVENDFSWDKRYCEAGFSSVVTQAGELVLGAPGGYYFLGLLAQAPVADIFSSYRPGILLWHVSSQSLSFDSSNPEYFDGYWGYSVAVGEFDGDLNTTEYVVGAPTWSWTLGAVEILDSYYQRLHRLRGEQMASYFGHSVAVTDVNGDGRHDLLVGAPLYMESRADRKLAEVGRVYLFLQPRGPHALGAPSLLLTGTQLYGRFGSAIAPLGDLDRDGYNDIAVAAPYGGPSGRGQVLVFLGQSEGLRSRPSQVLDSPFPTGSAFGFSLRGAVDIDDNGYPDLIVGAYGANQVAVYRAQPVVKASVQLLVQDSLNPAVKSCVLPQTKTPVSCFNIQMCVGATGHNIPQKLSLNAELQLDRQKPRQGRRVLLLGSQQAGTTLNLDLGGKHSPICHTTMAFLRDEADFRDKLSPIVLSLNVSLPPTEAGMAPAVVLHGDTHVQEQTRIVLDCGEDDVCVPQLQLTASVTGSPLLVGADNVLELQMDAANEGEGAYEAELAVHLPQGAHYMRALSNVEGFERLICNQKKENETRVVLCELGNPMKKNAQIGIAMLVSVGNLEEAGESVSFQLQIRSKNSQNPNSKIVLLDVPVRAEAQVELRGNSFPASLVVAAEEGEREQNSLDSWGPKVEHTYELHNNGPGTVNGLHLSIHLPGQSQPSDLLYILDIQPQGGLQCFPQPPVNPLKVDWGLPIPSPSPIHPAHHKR
T1 sequence (P08514 891-1039 limits assumed): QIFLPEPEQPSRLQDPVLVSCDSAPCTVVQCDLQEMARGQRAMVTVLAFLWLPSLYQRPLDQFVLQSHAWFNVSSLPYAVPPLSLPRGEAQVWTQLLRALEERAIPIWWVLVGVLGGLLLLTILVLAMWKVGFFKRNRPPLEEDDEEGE
T1 sequence (P05106 27-788): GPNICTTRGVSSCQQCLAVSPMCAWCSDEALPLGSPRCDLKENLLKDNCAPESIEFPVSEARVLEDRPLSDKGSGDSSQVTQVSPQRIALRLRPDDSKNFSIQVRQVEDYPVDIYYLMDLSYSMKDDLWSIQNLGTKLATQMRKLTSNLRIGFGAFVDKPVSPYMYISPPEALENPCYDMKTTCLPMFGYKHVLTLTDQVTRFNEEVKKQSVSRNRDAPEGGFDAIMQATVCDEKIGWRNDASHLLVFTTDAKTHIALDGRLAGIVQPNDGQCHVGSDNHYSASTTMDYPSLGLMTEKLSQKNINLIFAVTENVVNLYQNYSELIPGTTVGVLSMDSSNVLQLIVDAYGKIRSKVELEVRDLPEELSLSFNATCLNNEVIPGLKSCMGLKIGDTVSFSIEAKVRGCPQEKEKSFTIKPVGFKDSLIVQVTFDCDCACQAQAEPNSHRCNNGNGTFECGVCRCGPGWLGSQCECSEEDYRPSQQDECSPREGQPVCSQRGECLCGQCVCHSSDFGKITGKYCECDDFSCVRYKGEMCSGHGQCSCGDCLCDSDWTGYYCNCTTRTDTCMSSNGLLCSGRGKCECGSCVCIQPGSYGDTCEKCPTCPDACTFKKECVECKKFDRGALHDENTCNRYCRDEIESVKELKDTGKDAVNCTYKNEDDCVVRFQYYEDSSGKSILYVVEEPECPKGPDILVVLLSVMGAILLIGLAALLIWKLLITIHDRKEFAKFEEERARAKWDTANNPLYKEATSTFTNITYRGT
Description: The activity of the compounds of the present invention was tested in the following assays.
Human fibrinogen receptor (αIIbβ3) was purified from outdated platelets. […] Biotinylated human vitronectin was prepared by coupling NHS-biotin from Pierce Chemical Company (Rockford, Ill.) to purified vitronectin as previously described. […] Anti-biotin antibody was obtained from Calbiochem (La Jolla, Calif.). Linbro microtiter plates were obtained from Flow Labs (McLean, Va.). ADP reagent was obtained from Sigma (St. Louis, Mo.).
Solid Phase Receptor Assays
The purified human fibrinogen receptor (αIIbβ3) was diluted from stock solutions to 1.0 μg/mL in Tris-buffered saline containing 1.0 mM Ca^++, Mg^++, and Mn^++, pH 7.4 (TBS^+++). The diluted receptor was immediately transferred to Linbro microtiter plates at 100 μL/well (100 ng receptor/well). The plates were sealed and incubated overnight at 4° C. to allow the receptor to bind to the wells. All remaining steps were at room temperature. The assay plates were emptied and 200 μL of 1% RIA grade BSA in TBS^+++ (TBS^+++ /BSA) were added to block exposed plastic surfaces. Following a 2 hour incubation, the assay plates were washed with TBS^+++ using a 96 well plate washer. Logarithmic serial dilution of the test compound and controls were made starting at a stock concentration of 2 mM and using 2 nM biotinylated vitronectin in TBS^+++ /BSA as the diluent. This premixing of labeled ligand with test (or control) ligand, and subsequent transfer of 50 μL aliquots to the assay plate was carried out with a CETUS Propette robot; the final concentration of the labeled ligand was 1 nM and the highest concentration of test compound was 1.0×10^-4 M. The competition occurred for two hours after which all wells were washed with a plate washer as before. Affinity purified horseradish peroxidase labeled goat anti-biotin antibody was diluted 1:3000 in TBS^+++ /BSA and 125 μL were added to each well. After 30 minutes, the plates were washed and incubated with […]/H2 O2 substrate in 100 mM/L citrate buffer, pH 5.0. The plate was read with a microtiter plate reader at a wavelength of 450 nm and when the maximum-binding control wells reached an absorbance of about 1.0, the final A450 were recorded for analysis. The data were analyzed using a macro written for use with the EXCEL™ spreadsheet program. The mean, standard deviation, and % CV were determined for duplicate concentrations. The mean A450 values were normalized to the mean of four maximum-binding controls (no competitor added) (B-MAX). The normalized values were subjected to a four parameter curve fit algorithm, [Robard et al., Int.

[2] = biological target: T2, Human vitronectin receptor(αvβ3) (Homo sapiens, UniProt P05106+P06756); experiment: Vitronectin adhesion assay (solid phase receptor assay, αvβ3); settings: inhibition of 50% of maximum binding of biotinylated vitronectin; highest concentration tested 1.0×10^-4 M; read-out: AvB3 IC50
T2 construct: purified from human placenta; from tissue; host or cells: human placenta
T2 sequence (P06756 31-889 limits assumed): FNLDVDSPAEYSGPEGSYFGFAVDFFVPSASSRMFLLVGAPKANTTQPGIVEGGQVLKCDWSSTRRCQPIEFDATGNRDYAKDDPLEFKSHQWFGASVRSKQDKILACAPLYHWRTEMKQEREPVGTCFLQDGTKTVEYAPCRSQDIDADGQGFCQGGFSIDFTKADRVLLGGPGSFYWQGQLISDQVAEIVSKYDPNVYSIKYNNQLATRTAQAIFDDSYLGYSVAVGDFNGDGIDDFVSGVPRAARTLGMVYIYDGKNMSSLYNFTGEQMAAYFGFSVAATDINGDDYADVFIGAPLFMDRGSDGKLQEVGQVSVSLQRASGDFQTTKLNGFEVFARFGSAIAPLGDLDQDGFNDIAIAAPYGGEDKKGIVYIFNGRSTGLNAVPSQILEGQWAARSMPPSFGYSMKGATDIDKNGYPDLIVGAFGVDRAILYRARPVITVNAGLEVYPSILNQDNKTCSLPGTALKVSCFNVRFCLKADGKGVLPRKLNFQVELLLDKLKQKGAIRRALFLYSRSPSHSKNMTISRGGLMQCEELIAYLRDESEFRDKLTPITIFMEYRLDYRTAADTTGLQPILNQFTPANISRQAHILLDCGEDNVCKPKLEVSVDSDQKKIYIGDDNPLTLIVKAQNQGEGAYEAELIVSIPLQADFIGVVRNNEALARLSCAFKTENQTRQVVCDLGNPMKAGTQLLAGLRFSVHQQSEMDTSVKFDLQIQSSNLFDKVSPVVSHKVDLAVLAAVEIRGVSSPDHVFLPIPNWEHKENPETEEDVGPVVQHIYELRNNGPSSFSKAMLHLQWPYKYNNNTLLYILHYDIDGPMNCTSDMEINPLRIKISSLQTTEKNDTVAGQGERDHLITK
T2 sequence (P06756 891-1048 limits assumed): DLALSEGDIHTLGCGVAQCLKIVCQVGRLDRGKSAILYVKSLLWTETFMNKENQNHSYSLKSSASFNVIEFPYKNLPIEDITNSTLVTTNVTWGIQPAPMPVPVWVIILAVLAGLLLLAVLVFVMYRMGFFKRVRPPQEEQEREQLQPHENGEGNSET
T2 sequence (P05106 27-788): as the sequence (P05106 27-788) above
Description: The activity of the compounds of the present invention was tested in the following assays. […] Assay buffer, OPD substrate tablets, and RIA grade BSA were obtained from Sigma (St. Louis, Mo.). Anti-biotin antibody was obtained from Calbiochem (La Jolla, Calif.). Linbro microtiter plates were obtained from Flow Labs (McLean, Va.). ADP reagent was obtained from Sigma (St. Louis, Mo.). […] The purified human vitronectin receptor (αvβ3) was diluted from stock solutions to 1.0 μg/mL in Tris-buffered saline containing 1.0 mM Ca^++, Mg^++, and Mn^++, pH 7.4 (TBS^+++). The diluted receptor was immediately transferred to Linbro microtiter plates at 100 μL/well (100 ng receptor/well). The plates were sealed and incubated overnight at 4° C. to allow the receptor to bind to the wells. All remaining steps were at room temperature. The assay plates were emptied and 200 μL of 1% RIA grade BSA in TBS^+++ (TBS^+++ /BSA) were added to block exposed plastic surfaces. Following a 2 hour incubation, the assay plates were washed with TBS^+++ using a 96 well plate washer. […] The competition occurred for two hours after which all wells were washed with a plate washer as before. […] After 30 minutes, the plates were washed and incubated with OPD/H2 O2 substrate in 100 mM/L Citrate buffer, pH 5.0. […] The data were analyzed using a macro written for use with the EXCEL™ spreadsheet program. The mean, standard deviation, and % CV were determined for duplicate concentrations. The mean A450 values were normalized to the mean of four maximum-binding controls (no competitor added)(B-MAX). The normalized values were subjected to a four parameter curve fit algorithm [Rodbard et al., Int. […] Ser.

SMILES: CC(C)(C)NC(=O)NC(Cc1ccc(NC(=O)c2cccc(NC(=N)N)c2)cc1)C(=O)O (centres unmarked) [Example 124, 4-[[[3-[(aminoiminomethyl)amino]phenyl]carbonyl)amino]-N-[[(1,1-dimethylethyl)amino]carbonyl]phenylalanine, trifluoroacetate Salt]
IC50 [1]: 285 nM | IC50 [2]: 3 nM

IC50 [1]: 36.5 nM | IC50 [2]: 0.77 nM
SMILES: COC(=O)NC(Cc1ccc(NC(=O)c2cccc(NC(=N)N)c2)cc1)C(=O)O (centres unmarked) [Example 54, 4-[[[3-[(aminoiminomethyl)amino]phenyl]carbonyl]amino]-N-(methoxycarbonyl)phenylalanine, trifluoroacetate Salt]

SMILES: CCOC(=O)C(Cc1ccc(NC(=O)c2cccc(NC(=N)N)c2)cc1)NS(C)(=O)=O (centres unmarked) [Example 37, 4-[[[3-[(aminoiminomethyl)amino]phenyl]carbonyl]amino]-N-(methylsulfonyl)phenylalanine Ethyl Ester, monohydrate trifluoroacetate Salt]
IC50 [1]: 2380 nM | IC50 [2]: 97.8 nM

SMILES: CCCCS(=O)(=O)NC(Cc1ccc(OCc2cccc(NC(=N)N)c2)cc1)C(=O)O (centres unmarked) [Example 11, O-[[3-[(aminoiminomethyl)amino]-phenyl]methyl]-N-(butylsulfonyl)tyrosine, trifluoroacetate Salt monohydrate]
IC50 [1]: 4 nM | IC50 [2]: 2.2 nM

SMILES: CCOC(=O)C(Cc1ccc(NC(=O)c2cccc(NC(=N)N)c2)cc1)NC(=O)c1ccccc1 (centres unmarked) [Example 36, 4-[[[3-[(aminoiminomethyl)amino]phenyl]-carbonyl]amino]-N-(phenylcarbonyl)phenylalanine Ethyl Ester, monohydrate trifluoroacetate Salt]
IC50 [1]: 10500 nM | IC50 [2]: 1010 nM

SMILES: CCOC(=O)C(Cc1ccc(NC(=O)c2cccc(NC(=N)N)c2)cc1)NS(=O)(=O)c1ccccc1 (centres unmarked) [Example 40, 4-[[[3-[(aminoiminomethyl)amino]phenyl]-carbonyl]amino]-N-(phenylsulfonyl)phenylalanine Ethyl Ester, monohydrate trifluoroacetate Salt]
IC50 [1]: 748 nM | IC50 [2]: 557 nM

SMILES: CC(C)COC(=O)NC(Cc1ccc(NC(=O)c2cccc(NC(=N)N)c2)cc1)C(=O)O (centres unmarked) [Example 53, 4-[[[3-[(aminoiminomethyl)amino]phenyl]-carbonyl]amino]-N-[(2-methylpropoxy)carbonyl]-phenylalanine, trifluoroacetate Salt]
IC50 [1]: 15.3 nM | IC50 [2]: 0.56 nM
